What is called IC50 is the point on the concentration scale where inhibition reaches its midpoint. The low end stands for inhibition by little substance, the high end for a need for much substance.

IC50 data for 14 compounds are collected here from BindingDB's records for doi:10.1016/s0968-0896(02)00095-0 (Purdue University, 2002).

For the assay, the target named is T1, Gag-Pol polyprotein [588-1027]/[588-1147] (Human immunodeficiency virus 1, UniProt P04585).
T1 construct: 588-1027; 588-1147
Briefly: HIV-1 RT Assay. The following applies: pH 7.9. From the text:
The IC50 of reverse transcriptase is the concentration that inhibits 50% of recombinant HIV-1 RT RNA-directed DNA polymerase activity in vitro.
Consider `COC(=O)CCCC(=O)N1CCC(=C(c2cc(C)c(OC)c(C(=O)OC)c2)c2cc(C)c(OC)c(C(=O)OC)c2)CC1` [Methyl 5-[4-{4,4-dimethoxy-4,4-bis(methoxycarbonyl)-5,5-(dimethyl)diphenylmethylene}piperidyl]-5-oxopentanoate], for which the IC50 was above 100 µM.

Consider `COC(=O)N1CCC(=C2c3ccccc3CCc3ccccc32)CC1` [methyl 4-{tricyclo[9.4.0.0^{3,8}]pentadeca-1(11),3,5,7,12,14-hexaen-2-ylidene}piperidine-1-carboxylate], for which the IC50 is above 100 µM. The figure for `COC(=O)N1CCC(=C2c3ccccc3C=Cc3ccccc32)CC1` [methyl 4-{tricyclo[9.4.0.0^{3,8}]pentadeca-1(11),3,5,7,9,12,14-heptaen-2-ylidene}piperidine-1-carboxylate] is above 100 µM; for `CCOC(=O)N1CCC(=C(c2cc(Cl)c3c(c2)C(=O)OC(C)(C)O3)c2cc(Cl)c3c(c2)C(=O)OC(C)(C)O3)CC1` [ethyl 4-[bis(8-chloro-2,2-dimethyl-4-oxo-2,4-dihydro-1,3-benzodioxin-6-yl)methylidene]piperidine-1-carboxylate] it is above 100 µM; for `COC(=O)c1cc(C(c2cc(C)c(OC)c(C(=O)OC)c2)C2CCN(C(=O)OC)CC2)cc(C)c1OC` [Methyl 4 - (4,4 - dimethoxy - 3,3 - di(methoxycarbonyl)-5,5-dimethyl-diphenylmethyl)piperidinecarboxylate] it is above 100 µM. Next, `COC(=O)N1CCC(=C(c2cc(Cl)c(OC)c(C(=O)O)c2)c2cc(Cl)c(OC)c(C(=O)O)c2)CC1` [Methyl 4-(3,3-dicarboxy-5,5-dichloro-4,4-dimethoxydiphenylmethylene)piperidinecarboxylate]: above 100 µM. Next, `CCOC(=O)N1CCC(=C(c2cc(C)c(OC)c(C(=O)OC)c2)c2cc(C)c(OC)c(C(=O)OC)c2)CC1` [ethyl 4-{bis[4-methoxy-3-(methoxycarbonyl)-5-methylphenyl]methylidene}piperidine-1-carboxylate]: above 100 µM. As to `CCOC(=O)N1CCC(=C(c2cc(Cl)c(OC)c(C(=O)OC)c2)c2cc(Cl)c(OC)c(C(=O)OC)c2)CC1` [Ethyl 4-(3,3-dichloro-4,4-dimethoxy-5,5-di(methoxycarbonyl)-diphenylmethylene)piperidinecarboxylate], the IC50 was above 100 µM. Next, `COC(=O)c1cc(C(=C2CCN(C(=O)OC)CC2)c2cc(C)c(OC)c(C(=O)OC)c2)cc(C)c1OC` [Methyl 4-(4,4-dimethoxy-3,3 - di(methoxycarbonyl) -5,5 - dimethyl - diphenylmethylene)piperidinecarboxylate]: above 100 µM; `COC(=O)c1cc(C(=C2CCN(C(=O)OC)CC2)c2cc(Cl)c(OC)c(C(=O)OC)c2)cc(Cl)c1OC` [methyl 4-{bis[3-chloro-4-methoxy-5-(methoxycarbonyl)phenyl]methylidene}piperidine-1-carboxylate]: above 100 µM; `CCOC(=O)N1CCC(C(c2cc(C)c(OC)c(C(=O)OC)c2)c2cc(C)c(OC)c(C(=O)OC)c2)CC1` [Ethyl 4 - (4,4 - dimethoxy - 3,3 - di(methoxycarbonyl)-5,5-dimethyl-diphenylmethyl)piperidinecarboxylate]: above 100 µM.

In turn, `CCOC(=O)N1CCC(=C(c2cc(Cl)c(O)c(C(=O)O)c2)c2cc(Cl)c(O)c(C(=O)O)c2)CC1` [5-[(3-carboxy-5-chloro-4-hydroxyphenyl)[1-(ethoxycarbonyl)piperidin-4-ylidene]methyl]-3-chloro-2-hydroxybenzoic acid] yielded an IC50 above 100 µM. Next, `CCOC(=O)N1CCC(=C(c2cc(Cl)c(OC)c(C(=O)O)c2)c2cc(Cl)c(OC)c(C(=O)O)c2)CC1` [Ethyl 4-(3,3-dicarboxy-5,5-dichloro-4,4-dimethoxydiphenylmethylene)piperidinecarboxylate]: above 100 µM; `COC(=O)CCCC(=O)N1CCC(=C(c2cc(Cl)c(OC)c(C(=O)OC)c2)c2cc(Cl)c(OC)c(C(=O)OC)c2)CC1` [Methyl 5-[4-{3,3-dichloro-4,4-dimethoxy-5,5-di(methoxycarbonyl)diphenylmethylene}piperidyl]-5-oxopentanoate]: above 100 µM.
